Measured values from patent US7412284B2, “Apparatus for electroporation mediated delivery for drugs and genes” (Genetronics, Inc., priority 1997, dated 2008).
“Also recorded” adds a separate entry of the source. Marks after values point to notes of the source that are not given here.

Experiments:
[1] = tested on: poorly differentiated human pancreatic tumor (Panc-3); assay: EPT with bleomycin of Panc-3 tumors xenografted in nude mice; assay type: in vivo, nude mouse; settings: for Complete Regression (100%), number of mice / Death, number of mice / No Response, number of mice / Partial Regression (≧80%), number of mice / Tumor regrowth, number of mice: of 25 mice treated; for Tumor volume (mm^3) T1: treated mouse T1; for Tumor volume (mm^3) T2: treated mouse T2
Description: The single treatment procedure involved injection of bleomycin (0.5 units in 0.15 ml saline) intratumorally, using fanning, as described herein followed by application of six square wave electrical pulses, ten minutes later, using needle array electrodes as described in the present application, arranged along the circumference of a circle 1 cm in diameter. Needle array of variable diameters (e.g., 0.5 cm, 0.75 cm and 1.5 cm can also be used to accommodate tumors of various sizes. Stoppers of various heights can be inserted at the center of the array to make the penetration depth of the needles into the tumor variable. A built-in mechanism allowed switching of electrodes for maximum coverage of the tumor by the pulsed field. The electrical parameters were: 780 V/cm center field strength and 6×99 μs pulses spaced at 1 sec interval.
The tumor cell line Panc-3, a poorly differentiated adenocarcinoma cell line of the pancreas, was supplied by AntiCancer, Inc., San Diego. For EPT experiments, tissue taken from the stock mice, where the tumor line was maintained, was thawed and cut into very small pieces about 1 mm each, and 8-10 pieces were surgically xenografted in a subcutaneous sac made in left flank of nude mice, and then closed with 6.0 surgical suture. […] The tumor dimensions were measured and the tumor volume calculated using the formula: (II/6)×a×b×c where a, b, and c a are, respectively, the length, width and thickness of the tumor. 0.5 units Bleomycin (Sigma Chemicals) was dissolved in 0.15 ml of 0.9% NaCl and was injected in each mice intratumorally by fanning for both the control (D+E−) and the treated (D+E+) groups. Ten minutes after the injection, each mouse in the D+E+ group was pulsed from a BTX T820 square wave electroporator with a set of needle array electrodes as described in the present invention. Electrical parameters used were as follows: field strength 1300 V/cm, 6 pulses of 99 μs each, at 1 sec interval.
The mice were monitored every day for mortality and any signs of a diseased state were noted. The tumor dimensions were measured at regular intervals and tumor growth regression/progression monitored.

[2] = tested on: non-small cell lung cancer cell line (NSCLC), 177; assay: EPT with bleomycin of NSCLC xenografts in nude mice; assay type: in vivo
[3] = tested on: human prostate xenografts (PC-3); assay: EPT using MedPulser, PC-3 xenograft; assay type: in vivo, nude mice; settings: no tumors observed up to 60 days after treatment
Excerpt: Preliminary experiments using MedPulser™ (apparatus of the invention) for treatment of tumor xenografts grown subcutaneously onto nude mice have shown encouraging results. […] Treatment of human prostate xenografts (PC-3) has also shown about 66% complete regression of tumors. (No tumors observed up to 60 days after treatment). Both 4 and 6 needle array are effective in treatment of tumors by EPT.

For bleomycin, the “treated mice with no response” value ([1]; 2/25) was 8%, the “treated mice that died” value ([1]; 20 days after treatment, 1/25) was 4% and the “treated mice with partial (>80%) regression” value ([1]; 28 days following treatment, 5/25) was 20%. For the same substance, the “treated mice with complete tumor regression” value ([1]; 28 days following treatment, 17/25) was 68%, the “mice with tumor regrowth” value ([1]; 35 days after treatment, at a much slower rate) was 8% and the “histology of tumor samples” value ([1]; D+E+ group, 35 days after the treatment) was “necrotic tumor cell ghosts; also recorded: severe necrosis of the tumor region”. The “histology of samples from tumor site” value ([1]; after 120 days) was “complete absence of tumor cells”, the “cases with no palpable tumor” value ([1]; after 120 days of the treatment, 16/25) was 64% and the “necrosis and edema at the treatment site” value ([1]; bleomycin 0.5 units intratumoral + pulses) was “severe necrosis and edema in nearly all the mice”. For the same substance, the tumor volume ([1]; control group D+E− (drug, no pulsing)) was “increased dramatically”, the “Complete Regression (100%), number of mice” value (“Complete Regression (100%)” below) ([1]; 28 days after treatment) was 17 and the “Death, number of mice” value ([1]; 28 days after treatment) was 1. For the same substance, the “No Response, number of mice” value ([1]; 28 days after treatment) was 2, the “Partial Regression (≧80%), number of mice” value (shortened to “Partial Regression (≧80%)”) ([1]; 28 days after treatment) was 5 and the “Complete Regression (100%)” value ([1]; 35 days after treatment) was 16. The “No Response, number of mice” value ([1]; 35 days after treatment) was 2, the “Partial Regression (≧80%)” value ([1]; 35 days after treatment) was 3 and the “Complete Regression (100%)” value ([1]; 57 days after treatment) was 16. The “Partial Regression (≧80%)” value ([1]; 57 days after treatment) was 3, the “Tumor regrowth, number of mice” value ([1]; 57 days after treatment) was 2 and the “No Response, number of mice” value ([1]; 57 days after treatment, footnote a: mice sacrificed due to increased tumor burden) was 1^a. For the same substance, the “Complete Regression (100%)” value ([1]; 84 days after treatment) was 16, the “No Response, number of mice” value ([1]; 84 days after treatment) was 1 and the “Partial Regression (≧80%)” value ([1]; 84 days after treatment) was 3. The “Death, number of mice” value ([1]; 84 days after treatment, 1 died after treatment, 1 with no palpable tumor died after 64 days) was 2^b, the “Complete Regression (100%)” value ([1]; 94 days after treatment) was 16 and the “No Response, number of mice” value ([1]; 94 days after treatment) was 1. The “Partial Regression (≧80%)” value ([1]; 94 days after treatment) was 3, the “Tumor regrowth, number of mice” value ([1]; 94 days after treatment, footnote d: secondary metastatic tumor) was 1^d and the “Complete Regression (100%)” value ([1]; 120 days after treatment) was 16. For the same substance, the “Partial Regression (≧80%)” value ([1]; 120 days after treatment, footnote e: fibrous tissue) was 3^e, the “time monitored to be without tumors” value ([1]; representative animals (2/17), then euthanized) was 243 days and the tumor volume ([1]; treated group D+E+ (drug + electrical field)) was “substantial reduction in the tumor volume”. For the same substance, the detectable tumor ([1]; treated mice, after approximately 24 days) was “essentially no detectable tumor”, the “Tumor volume (mm^3) T1” value ([1]; 0 days after treatment) was 123.110 mm^3 and the “Tumor volume (mm^3) T1” value ([1]; 1 day after treatment) was 210.950 mm^3. For the same substance, the “Tumor volume (mm^3) T1” value ([1]; 8 days after treatment) was 104.550 mm^3, the “Tumor volume (mm^3) T1” value ([1]; 15 days after treatment) was 113.210 mm^3 and the “Tumor volume (mm^3) T1” value ([1]; 18 days after treatment) was 161.730 mm^3. For the same substance, the “Tumor volume (mm^3) T1” value ([1]; 24 days after treatment) was 41.560 mm^3, the “Tumor volume (mm^3) T1” value ([1]; 28 days after treatment) was 0 mm^3 and the “Tumor volume (mm^3) T1” value ([1]; 35 days after treatment) was 0 mm^3. The “Tumor volume (mm^3) T1” value ([1]; 38 days after treatment) was 0 mm^3, the “Tumor volume (mm^3) T1” value ([1]; 43 days after treatment) was 0 mm^3 and the “Tumor volume (mm^3) T2” value ([1]; 0 days after treatment) was 178.370 mm^3. The “Tumor volume (mm^3) T2” value ([1]; 1 day after treatment) was 252.720 mm^3, the “Tumor volume (mm^3) T2” value ([1]; 8 days after treatment) was 211.110 mm^3 and the “Tumor volume (mm^3) T2” value ([1]; 15 days after treatment) was 226.966 mm^3. For the same substance, the “Tumor volume (mm^3) T2” value ([1]; 18 days after treatment) was 246.910 mm^3, the “Tumor volume (mm^3) T2” value ([1]; 24 days after treatment) was 47.223 mm^3 and the “Tumor volume (mm^3) T2” value ([1]; 28 days after treatment) was 0 mm^3. For the same substance, the “Tumor volume (mm^3) T2” value ([1]; 35 days after treatment) was 0 mm^3, the “Tumor volume (mm^3) T2” value ([1]; 38 days after treatment) was 0 mm^3 and the “Tumor volume (mm^3) T2” value ([1]; 43 days after treatment) was 0 mm^3. The EPT treatment result ([2]; bleomycin + EPT, NSCLC xenograft) was “very encouraging results”, the tumor after retreatment ([2]; recurred tumor retreated at day 27, after 7 days) was “no evidence of tumor” and the “complete regression of tumors” value [3] was “about 66%”.
